Reference: article PMC9863764, “Roles of Human Liver Cytochrome P450 Enzymes in Tenatoprazole Metabolism” (Pharmaceutics, 2022)

Experiments:
CYP1A2 = molecular target: T1, CYP1A2 (Homo sapiens, UniProt P05177); assay: Tenatoprazole oxidation by recombinant CYP1A2; type: in vitro ADME; conditions: substrate tenatoprazole 0.10 mM, 0.20 μM CYP1A2; no apparent formation
T1 construct: made in house; host or cells: Escherichia coli (membrane fractions)
T1 sequence (P05177 1-516): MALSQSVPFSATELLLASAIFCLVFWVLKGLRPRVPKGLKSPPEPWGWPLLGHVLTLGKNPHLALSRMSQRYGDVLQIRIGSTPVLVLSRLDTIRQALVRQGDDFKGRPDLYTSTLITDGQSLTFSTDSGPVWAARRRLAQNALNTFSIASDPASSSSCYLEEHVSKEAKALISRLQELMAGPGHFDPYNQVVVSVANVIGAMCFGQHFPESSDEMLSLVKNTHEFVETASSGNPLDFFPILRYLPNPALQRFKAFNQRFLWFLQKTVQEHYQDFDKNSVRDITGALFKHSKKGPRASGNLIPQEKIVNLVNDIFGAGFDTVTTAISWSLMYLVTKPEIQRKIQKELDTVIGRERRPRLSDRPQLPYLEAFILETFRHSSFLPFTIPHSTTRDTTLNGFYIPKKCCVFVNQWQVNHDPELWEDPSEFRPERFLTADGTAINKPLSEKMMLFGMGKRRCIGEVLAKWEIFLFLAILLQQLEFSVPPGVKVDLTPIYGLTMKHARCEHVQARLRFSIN
Experimental: (§1) Pooled liver microsomes from human samples were obtained from ThermoFisher Scientific (Waltham, MA, USA). Recombinant human P450s were heterologously expressed in Escherichia coli with a pCW vector containing human P450 cDNA (CYP 3A4, 2C9, 2C19, 1A2, 1B1, 2E1, 2D6, and 2A6) and rat NADPH-P450 reductase (CPR). Membrane fractions expressing both P450 and CPR of E. coli were prepared as described previously and were used for the catalytic activity assays.
(§2) The reaction mixture included 0.20 μM P450, 0.40 μM CPR, and tenatoprazole (0.10 mM) in 0.25 mL of 0.10 M potassium phosphate buffer (pH 7.4). The reaction was started by adding NGS and the incubation was continued for the indicated time at 37 °C. Incubation was then stopped by adding ice-chilled ethyl acetate (0.50 mL) and omeprazole (IS) was added to a final concentration of 20 μM. The mixtures were vortexed for 2 min, centrifuged at 1000× g for 20 min, and then the organic layer was taken for drying under nitrogen gas stream. The residues were dissolved in 180 μL of HPLC mobile phase and 30 μL was injected onto a Gemini C18 column (4.6 × 150 mm, 5 μm; Phenomenex, Torrance, CA, USA). The products formed were analyzed by HPLC at A302. The HPLC profile of the authentic chemicals (i.e., tenatoprazole, tenatoprazole sulfide, and their metabolites) were used to identify the major metabolites of tenatoprazole and tenatoprazole sulfide produced by the recombinant P450s.
(§3) Figure S6. HPLC analyses of the products derived from the oxidation of tenatoprazole catalyzed by recombinant human P450s. The reaction mixture included 0.20 μM P450, 0.40 μM CPR, and 0.10 mM tenatoprazole in 0.25 mL of potassium phosphate buffer (0.10 M, pH 7.4). The reaction was started by adding an NGS at 37 °C for 60 min. (A) CYP1A2; (B) CYP1B1; (C) CYP2A6; (D) CYP2C9; (E) CYP2D6; (F) CYP2E1. The arrows with solid and broken lines indicate the retention times of 5’-OH tenatoprazole (6.6 min) and 5’-OH tenatoprazole sulfide (8.4 min), respectively.
(§4) (1 picture or pasted object on this page, not shown here)

CYP1B1 = molecular target: T2, CYP1B1 (Homo sapiens, UniProt Q16678); assay: Tenatoprazole oxidation by recombinant CYP1B1; type: in vitro ADME; conditions: substrate tenatoprazole 0.10 mM, 0.20 μM CYP1B1; no apparent formation
T2 construct: made in house; host or cells: Escherichia coli (membrane fractions)
T2 sequence (Q16678 1-543): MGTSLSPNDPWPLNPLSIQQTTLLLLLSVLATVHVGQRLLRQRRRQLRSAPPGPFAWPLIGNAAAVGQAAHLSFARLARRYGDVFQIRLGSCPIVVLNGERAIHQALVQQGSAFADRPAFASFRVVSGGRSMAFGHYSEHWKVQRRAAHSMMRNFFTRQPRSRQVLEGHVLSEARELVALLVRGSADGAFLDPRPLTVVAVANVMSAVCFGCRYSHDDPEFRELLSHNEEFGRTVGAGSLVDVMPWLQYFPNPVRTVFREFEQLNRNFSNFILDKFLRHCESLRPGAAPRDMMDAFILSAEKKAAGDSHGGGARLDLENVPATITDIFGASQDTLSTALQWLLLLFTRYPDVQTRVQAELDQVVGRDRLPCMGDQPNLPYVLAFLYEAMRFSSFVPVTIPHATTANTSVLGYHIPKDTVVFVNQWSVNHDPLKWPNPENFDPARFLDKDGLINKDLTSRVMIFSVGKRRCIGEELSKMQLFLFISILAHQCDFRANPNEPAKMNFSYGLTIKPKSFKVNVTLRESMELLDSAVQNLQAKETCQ
Experimental: as §1, §2, §3, §4

## COc1ccc2[nH]c(S(=O)(=O)Cc3ncc(C)c(OC)c3C)nc2n1 [tenatoprazole sulfone]
CYP1A2
  formation rate of metabolite: < 0.05 nmol product/min/nmol P450
CYP1B1
  formation rate of metabolite: < 0.05 nmol product/min/nmol P450

## COc1ccc2[nH]c([S+]([O-])Cc3ncc(CO)c(OC)c3C)nc2n1 (stereo not shown) [5′-OH tenatoprazole, 5′-hydroxy tenatoprazole]
CYP1A2
  formation rate of metabolite: < 0.05 nmol product/min/nmol P450
CYP1B1
  formation rate of metabolite: < 0.05 nmol product/min/nmol P450
